In US12122763B2, “Substituted piperidines for androgen receptor degradation” (UBIX THERAPEUTICS, INC., priority 2020, dated 2024):

Assays:
Type in all cases: cell-based
[1] = target: T1, Androgen Receptor (AR) protein (Homo sapiens, UniProt P10275, T878A); experiment: Androgen Receptor (AR) protein degradation assay in LNCaP cells, western blotting; conditions: 20 h; for inhibition at 0.01 µM: 0.01 μM compound; for inhibition at 0.1 µM: 0.1 μM compound; for inhibition at 1 µM: 1 μM compound; for inhibition at 10 µM: 10 μM compound
T1 construct: endogenous in cells; host or cells: LNCaP
T1 sequence (P10275 whole entry T878A): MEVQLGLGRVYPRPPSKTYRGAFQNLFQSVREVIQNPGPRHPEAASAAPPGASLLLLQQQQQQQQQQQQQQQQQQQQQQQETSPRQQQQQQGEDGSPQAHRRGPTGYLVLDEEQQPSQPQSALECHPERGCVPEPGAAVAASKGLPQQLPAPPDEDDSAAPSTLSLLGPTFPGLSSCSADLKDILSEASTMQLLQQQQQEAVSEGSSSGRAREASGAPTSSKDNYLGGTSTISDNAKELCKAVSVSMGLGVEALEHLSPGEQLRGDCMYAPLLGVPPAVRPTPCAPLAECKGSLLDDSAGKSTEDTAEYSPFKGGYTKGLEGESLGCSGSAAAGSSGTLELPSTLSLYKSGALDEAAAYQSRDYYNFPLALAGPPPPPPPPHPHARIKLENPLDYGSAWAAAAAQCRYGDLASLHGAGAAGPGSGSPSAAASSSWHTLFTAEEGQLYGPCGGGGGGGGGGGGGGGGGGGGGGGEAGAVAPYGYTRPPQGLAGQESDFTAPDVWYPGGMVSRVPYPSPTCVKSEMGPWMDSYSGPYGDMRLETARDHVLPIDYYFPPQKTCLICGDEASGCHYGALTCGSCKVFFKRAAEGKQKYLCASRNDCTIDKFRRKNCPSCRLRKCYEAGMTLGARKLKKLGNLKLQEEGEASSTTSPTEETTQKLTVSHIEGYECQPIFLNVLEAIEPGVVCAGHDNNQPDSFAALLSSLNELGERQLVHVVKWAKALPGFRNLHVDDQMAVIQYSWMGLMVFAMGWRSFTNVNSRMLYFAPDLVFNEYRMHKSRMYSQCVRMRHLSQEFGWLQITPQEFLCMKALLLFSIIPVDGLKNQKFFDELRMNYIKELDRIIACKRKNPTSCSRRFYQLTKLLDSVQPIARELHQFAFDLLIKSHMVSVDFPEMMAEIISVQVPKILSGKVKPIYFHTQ
T1 sequence (Q96SW2 whole entry partner): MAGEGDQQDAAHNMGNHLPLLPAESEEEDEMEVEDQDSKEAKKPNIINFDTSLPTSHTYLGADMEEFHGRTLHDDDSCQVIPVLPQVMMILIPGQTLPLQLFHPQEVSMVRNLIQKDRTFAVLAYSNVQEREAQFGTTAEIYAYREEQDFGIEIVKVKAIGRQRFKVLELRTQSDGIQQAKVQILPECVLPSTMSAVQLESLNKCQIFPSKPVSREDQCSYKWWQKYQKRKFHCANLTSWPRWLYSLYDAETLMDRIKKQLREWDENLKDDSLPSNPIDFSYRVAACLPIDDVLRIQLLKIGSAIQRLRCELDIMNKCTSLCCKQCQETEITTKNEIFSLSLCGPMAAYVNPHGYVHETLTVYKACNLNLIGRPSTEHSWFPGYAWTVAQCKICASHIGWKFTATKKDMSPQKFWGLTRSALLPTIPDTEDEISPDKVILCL
Method in brief: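 LNCaP prostate cancer cells were cultured 3 days, then treated with compound for 20 h. Lysates in 1% SDS buffer were normalised by BCA, and 8 μg protein was run on 4–12% Bis-Tris gels. AR was immunoblotted with chemiluminescence, using GAPDH/β-actin as loading controls.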

[2] = target: T2, AR-V7 (Homo sapiens, UniProt P10275); experiment: Reduction of expression of AR splicing variant AR-V7; conditions: at a concentration of 100 nM
T2 sequence (P10275 1-644 isoform P10275-3): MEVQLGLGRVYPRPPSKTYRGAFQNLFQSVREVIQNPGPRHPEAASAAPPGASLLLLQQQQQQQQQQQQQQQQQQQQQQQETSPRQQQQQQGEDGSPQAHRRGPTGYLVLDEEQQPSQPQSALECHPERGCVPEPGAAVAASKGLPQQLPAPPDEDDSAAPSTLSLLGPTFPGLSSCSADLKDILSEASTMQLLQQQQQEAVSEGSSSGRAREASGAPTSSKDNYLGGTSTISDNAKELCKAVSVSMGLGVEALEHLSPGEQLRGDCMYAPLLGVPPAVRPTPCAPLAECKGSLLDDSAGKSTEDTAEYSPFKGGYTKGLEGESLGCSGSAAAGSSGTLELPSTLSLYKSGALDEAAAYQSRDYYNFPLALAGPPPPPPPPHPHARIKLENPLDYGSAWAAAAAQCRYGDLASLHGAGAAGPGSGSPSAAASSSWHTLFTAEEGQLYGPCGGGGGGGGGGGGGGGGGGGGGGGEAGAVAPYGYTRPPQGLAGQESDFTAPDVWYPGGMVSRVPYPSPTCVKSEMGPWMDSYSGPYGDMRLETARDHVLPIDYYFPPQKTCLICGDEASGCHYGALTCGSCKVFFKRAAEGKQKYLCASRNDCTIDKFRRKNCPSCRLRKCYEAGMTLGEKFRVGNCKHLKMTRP
Excerpt: In addition, another mechanism by which resistance to existing treatments occurs is the expression of AR splicing variants (eg, AR-V7). The compounds of the present invention are excellent in reducing the expression of these variants (eg, AR-V7), and thus have a better anti-proliferative effect in AR-V7 positive prostate cancer cells. For example, the compounds of Examples 6 and 169 of the present disclosure inhibited the expression of AR-V7 by 87% and 48%, respectively, at a concentration of 100 nM.

[3] = target: T877A AR mutant (Homo sapiens, UniProt P10275, T878A); experiment: Degradation of AR mutant T877A; conditions: at a concentration of 100 nM
Chain of T877A AR mutant (P10275 whole entry T878A): as the sequence (P10275 whole entry T878A) above
Chain of T877A AR mutant (Q96SW2 whole entry partner): as the sequence (Q96SW2 whole entry partner) above
Excerpt: On the other hand, the compounds of the present invention have excellent degradation activity against AR mutants (T877A, M896V, F876L, H874Y, L702H, W741C, etc.). Since resistance to existing anti-androgen receptor drugs can be caused by AR mutation, the excellent AR mutant-degrading activity of the compounds of the present invention can help overcome resistance to existing drugs.

SMILES	inhibition at 0.01 µM [1]	inhibition at 0.1 µM [1]	inhibition at 1 µM [1]	inhibition at 10 µM [1]	inhibited the expression of AR-V7 [2]	degradation activity for the T877A AR mutant [3]
N#Cc1ccc(N2CCC(C(=O)Nc3ccc(N4CCC(CN5CCN(CC6CCN(c7ccc8c(c7)C(=O)N(C7CCC(=O)NC7=O)C8=O)CC6)CC5)CC4)cn3)CC2)cc1C(F)(F)F (stereo not drawn) [Example 6, 1-(4-cyano-3-(trifluoromethyl)phenyl)-N-(5-(4-((4-((1-(2-(2,6-dioxopiperidin-3-yl)-1,3-dioxoisoindolin-5-yl)piperidin-4-yl)methyl)piperazin-1-yl)methyl)piperidin-1-yl)pyridin-2-yl)piperidine-4-carboxamide]	83%	99%	99%	97%	87%	73%
N#Cc1ccc(N2CCC(C(=O)Nc3ccc(N4CCC(CN5CC6(CCN(c7ccc8c(c7)C(=O)N(C7CCC(=O)NC7=O)C8=O)CC6)C5)CC4)cn3)CC2)cc1C(F)(F)F (stereo not drawn) [Example 49, 1-(4-cyano-3-(trifluoromethyl)phenyl)-N-(5-(4-((7-(2-(2,6-dioxopiperidin-3-yl)-1,3-dioxoisoindolin-5-yl)-2,7-diazaspiro[3.5]nonan-2-yl)methyl)piperidin-1-yl)pyridin-2-yl)piperidine-4-carboxamide]	68%	98%	99%	99%	–	46%
N#Cc1ccc(N2CCC(C(=O)Nc3ccc(OC4CCN(CC5CCN(c6ccc7c(c6)C(=O)N(C6CCC(=O)NC6=O)C7=O)CC5)CC4)cn3)CC2)cc1C(F)(F)F (stereo not drawn) [Example 169, 1-(4-cyano-3-(trifluoromethyl)phenyl)-N-(5-((1-((1-(2-(2,6-dioxopiperidin-3-yl)-1,3-dioxoisoindolin-5-yl)piperidin-4-yl)methyl)piperidin-4-yl)oxy)pyridin-2-yl)piperidine-4-carboxamide]	85%	99%	99%	–	48%	–
N#Cc1ccc(N2CCC(C(=O)Nc3ccc(CCN4CCC(CN5CCN(c6cc7c(cc6F)C(=O)N(C6CCC(=O)NC6=O)C7=O)CC5)CC4)cn3)CC2)cc1C(F)(F)F (stereo not drawn) [Example 189, 1-(4-cyano-3-(trifluoromethyl)phenyl)-N-(5-(2-(4-((4-(2-(2,6-dioxopiperidin-3-yl)-6-fluoro-1,3-dioxoisoindolin-5-yl)piperazin-1-yl)methyl)piperidin-1-yl)ethyl)pyridin-2-yl)piperidine-4-carboxamide]	8%	79%	–	–	–	–
N#Cc1ccc(N2CCC(C(=O)Nc3ccc(N4CC(CN5CCC(CN6CCN(c7ccc8c(c7)C(=O)N(C7CCC(=O)NC7=O)C8=O)CC6)CC5)C4)cn3)CC2)cc1C(F)(F)F (stereo not drawn) [Example 190, 1-(4-cyano-3-(trifluoromethyl)phenyl)-N-(5-(3-((4-((4-(2-(2,6-dioxopiperidin-3-yl)-1,3-dioxoisoindolin-5-yl)piperazin-1-yl)methyl)piperidin-1-yl)methyl)azetidin-1-yl)pyridin-2-yl)piperidine-4-carboxamide]	-11%	61%	–	–	–	–
N#Cc1ccc(N2CCC(C(=O)Nc3ccc(N4CC(CN5CCC(CN6CCN(c7cc8c(cc7F)C(=O)N(C7CCC(=O)NC7=O)C8=O)CC6)CC5)C4)cn3)CC2)cc1C(F)(F)F (stereo not drawn) [Example 191, 1-(4-cyano-3-(trifluoromethyl)phenyl)-N-(5-(3-((4-((4-(2-(2,6-dioxopiperidin-3-yl)-6-fluoro-1,3-dioxoisoindolin-5-yl)piperazin-1-yl)methyl)piperidin-1-yl)methyl)azetidin-1-yl)pyridin-2-yl)piperidine-4-carboxamide]	3%	84%	–	–	–	–
N#Cc1ccc(N2CCC(C(=O)Nc3ccc(N4CCC(CCN5CCN(c6cc7c(cc6F)C(=O)N(C6CCC(=O)NC6=O)C7=O)CC5)CC4)cn3)CC2)cc1C(F)(F)F (stereo not drawn) [Example 192, 1-(4-cyano-3-(trifluoromethyl)phenyl)-N-(5-(4-(2-(4-(2-(2,6-dioxopiperidin-3-yl)-6-fluoro-1,3-dioxoisoindolin-5-yl)piperazin-1-yl)ethyl)piperidin-1-yl)pyridin-2-yl)piperidine-4-carboxamide]	-11%	15%	67%	–	–	–
